Source: patent US11648289B2, “Antibacterial method” (priority 2016, dated 2023)
No end group written: not given here.

Key:
S. pneumoniae ms4 = settings: ms4, rseP Y24>A, induced with ComS (2 μM)
Protocol: (§1) Bacterial strains, growth conditions, bacteriocins and antimicrobial assays. All the strains (see below) used in minimal inhibitory concentration (MIC) assays (Varahan et al., 2014, M. Bio. 5:e01726-01714) were grown in BHI medium (Oxoid) at 30° C. without shaking. A collection of E. faecium strains isolated from blood in patients from different European hospitals was received from Department of Medical Microbiology, University Medical Center Utrecht, the Netherlands. […] Synthesized peptides were solubilized to concentrations of 10.0-0.1 mg/ml in 0.1% (vol/vol) trifluoroacetic acid and stored at −20° C. until use. […] Bacteriocin activity was determined by microtiter plate assay as previously described (Holo et al., 1991, J. Bacteriol., 173:3879-3887). The MIC was defined as the minimal bacteriocin concentration that inhibited the growth of the indicator strain by at least 50% (50% of the turbidity of the control culture without bacteriocin) in 200 μl culture. CD Spectroscopy Circular dichroism (CD) spectra were recorded using a Jasco J-810 spectropolarimeter (Jasco International Co) calibrated with D-camphor-10-sulfonate (Icatayama Chemical). All measurements were made using a quartz cuvette (Sterna) with 0.1 cm path length. Samples were scanned five times with a scanning rate of 50 nm/min with a bandwidth of 0.5 nm and response time of 1 s over the wavelength range 190-250 nm. Spectra were recorded at different (30 and 50%) trifluoroethanol (TFE) (Aldridge) concentrations at 25° C. The approximate α-helical content of the protein was estimated from its molar ellipticity at 222 nm (Scholtz et al., 1991, Biopolymers 31:1463-1470). NMR Spectroscopy The experiments were run on a sample containing 1.0 mM EntK1, 50% D3-TFE (99.5% D) (Aldrich), Milli-Q water and 0.2 mM of 4,4-dimethyl-4-silapentane-1-sulfonic acid (DSS) (Larodan). 2D NOESY (Jeener et al., 1979, J. Magn. Reson., 71:4546-4553), 2D TOCSY (Braunschweiler and Ernst, 1983, J. Magn. Reson., 53:521-528), 2D DQCOSY, ^15N-HSQC (Davis et al., 1992, J. Magn. Reson., 98:207-216) and ^13C-HSQC (Hurd, 1991, J. Magn. Reson., 91:648-653) were recorded. The data was acquired on a 600 MHz Bruker Avance II spectrometer with four channels and a 5 mm TCI cryoprobe (Bruker Biospin). NOESY spectra with mixing times between 120 ms and 300 ms were obtained for both samples. TOCSY mixing times of 15-80 ms were used. The experiments were run at 298.15 K. Spectra were processed using the Topspin program (Bruker Biospin). 4,4-dimethyl-4-silapentane-1-sulfonic acid (DSS) was used as a chemical shift standard, and ^15N and ^13C data were referenced using frequency ratios as described in (Wishart et al., 1995, J. Biomol. NMR., 6:135-140). For visualization, assignment and integration of the spectra the computer program CARA was used (Keller, 2004, The Computer Aided Resonance Assignment Tutorial. CANTINA Verlag, Goldau, Switzerland). The spectra were assigned using standard methods. Dihedral angle restraints were obtained from the chemical shift values using the program TALOS-N(Shen and Bax, 2013, J. Biomol. NMR, 56:227-241). Nuclear Overhauser effect (NOE) distance restraints were calculated from the peak volumes in the NOESY spectra with NOESY mixing time of 200 ms. All structure calculations were made using the structure calculation program CYANA 2.1 (Guntert et al., 1997, J. Mol. Biol., 273:283-298; Herrmann et al., 2002, J. Mol. Biol., 319:209-227). The annealing macro in CYANA calculated 100 structures. The 20 structures with the lowest energy were kept and analyzed further. The root-mean-square deviation (RMSD) was calculated and the structures were visualized using MolMol (Koradi et al., 1996, J. Mol. Graph., 14:51-55, 29-32). Generation of bacteriocin resistant mutants of E. faecalis and E. faecium.

[1] = tested on: S. pneumoniae ds220 non-induced; settings: WT rseP
Protocol: as §1

E. faecalis LMGT 3370 = tested on: E. faecalis LMGT 3370
Protocol: as §1

E. faecium LMGT 3193 = tested on: E. faecium LMGT 3193
Protocol: as §1

E. faecium P032 inv-4 = settings: E. faecium P032 inv-4, isolated from blood
Protocol: as §1

E. faecium P040 INV-25 = settings: E. faecium P040 INV-25, isolated from blood
Protocol: as §1

E. faecium 14-597963* = settings: E. faecium 14-597963, isolated from blood, Vancomycin-resistant
Protocol: as §1

E. faecium UW6920 = settings: E. faecium UW6920, isolated from blood
Protocol: as §1

B. cercus LMGT 2711 = tested on: B. cercus LMGT 2711
Protocol: as §1

E. faecium 602589 = settings: E. faecium 602589, isolated from blood
Protocol: as §1

[2] = tested on: Listeria monocytogenes LMGT 2651
Protocol: as §1

S. aureus LMGT 3272 = tested on: S. aureus LMGT 3272
Protocol: as §1

E. faecium 130409015079* = settings: E. faecium 130409015079, isolated from blood, Vancomycin-resistant
Protocol: as §1

E. faecium 928379 A* = settings: isolated from blood, Vancomycin-resistant
Protocol: as §1

[3] = tested on: E. faecium LMGT2787 resistant mutants; settings: only HR type found
Protocol: as §1

E. faecium PO1402593* = settings: E. faecium PO1402593, isolated from blood, Vancomycin-resistant
Protocol: as §1

E. faecium AH137 = settings: E. faecium AH137, isolated from blood
Protocol: as §1

E. faecalis LMGT 3143 = tested on: E. faecalis LMGT 3143
Protocol: as §1

E. faecium A11 EFH2/00 = settings: E. faecium A11 EFH2/00, isolated from blood
Protocol: as §1

Sequence | MIC (S. pneumoniae ms4) | MIC [1] | MIC 50 (E. faecalis LMGT 3370) | MIC 50 (E. faecium LMGT 3193) | MIC 50 (E. faecium P032 inv-4) | MIC 50 (E. faecium P040 INV-25) | MIC 50 (E. faecium 14-597963*) | MIC 50 (E. faecium UW6920) | MIC 50 (B. cercus LMGT 2711) | MIC 50 (E. faecium 602589) | MIC 50 [2] | MIC 50 (S. aureus LMGT 3272) | MIC 50 (E. faecium 130409015079*) | MIC 50 (E. faecium 928379 A*) | resistance of HR type mutants compared to the WT [3] | MIC 50 (E. faecium PO1402593*) | MIC 50 (E. faecium AH137) | MIC 50 (E. faecalis LMGT 3143) | MIC 50 (E. faecium A11 EFH2/00)
MKFKFNPTGTIVKKLTQYEIAWFKNKHGYYPWEIPRC [EntK1] | 0.7 µM | >5.5 µM | 5.5 µM | 0.085 µM | 0.02 µM | 0.02 µM | 0.045 µM | 0.045 µM | 2.75 µM | 0.045 µM | >5.5 µM | >5.5 µM | 0.02 µM | 0.02 µM | 500 times | 0.02 µM | 0.01 µM | >5.5 µM | 0.045 µM
MKTILRFVAGYDIASHKKKTGGYPWERGKA [LsbB, reference compound] | >7 µM | >7 µM | >7 µM | >7 µM |  |  |  |  | >7 µM |  | >7 µM | >7 µM |  |  |  |  |  | >7 µM | 
MLAKIKAMIKKFPNPYTLAAKLTTYEINWYKQQYGRYPWERPVA [EntEJ97] | 0.018 µM | >4.5 µM | 0.145 µM | 0.145 µM | 0.037 µM | 0.075 µM | 0.145 µM | 0.145 µM | >4.7 µM | 0.145 µM | 2.3 µM | 1.175 µM | 0.037 µM | 0.075 µM | 500 times | 0.075 µM | 0.075 µM | 0.145 µM | 0.075 µM
